Results published in article PMC9393629, “Acetogenic production of 3-Hydroxybutyrate using a native 3-Hydroxybutyryl-CoA Dehydrogenase” (Frontiers in Microbiology, 2022).

Experiments:
[1] = biological target: T1, C. ljungdahlii Hbd2 (Clostridium ljungdahlii, UniProt D8GTU3); test: NAD(P)H oxidation at […] nm, E. coli cell-free extract; type: biochemical; settings: 75 uM NADH, 125 uM acetoacetyl-CoA; 100 mM potassium phosphate pH 6.5, 25 mM potassium citrate; vector-extract activity subtracted
T1 construct: gene mmgB_1; full-length gene expressed in E. coli, cell-free extract (bead-beating), not purified; EC 1.1.1.57 printed
T1 sequence (D8GTU3 1-313): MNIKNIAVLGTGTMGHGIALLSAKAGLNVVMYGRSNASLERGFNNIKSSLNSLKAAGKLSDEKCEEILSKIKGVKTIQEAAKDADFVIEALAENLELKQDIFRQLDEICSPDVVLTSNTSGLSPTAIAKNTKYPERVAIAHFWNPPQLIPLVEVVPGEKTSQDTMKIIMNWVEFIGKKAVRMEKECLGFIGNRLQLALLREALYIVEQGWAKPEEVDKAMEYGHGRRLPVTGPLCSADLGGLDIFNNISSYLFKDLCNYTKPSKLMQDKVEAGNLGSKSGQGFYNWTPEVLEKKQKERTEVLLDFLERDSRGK

[2] = biological target: T2, C. kluyveri Hbd1 (Clostridium kluyveri, UniProt A5N5D1); test: as above; type: biochemical; settings: 75 uM NADPH, 125 uM acetoacetyl-CoA; 100 mM potassium phosphate pH 6.5, 25 mM potassium citrate
T2 construct: full-length gene expressed in E. coli, cell-free extract (bead-beating), not purified
T2 sequence (A5N5D1 1-282): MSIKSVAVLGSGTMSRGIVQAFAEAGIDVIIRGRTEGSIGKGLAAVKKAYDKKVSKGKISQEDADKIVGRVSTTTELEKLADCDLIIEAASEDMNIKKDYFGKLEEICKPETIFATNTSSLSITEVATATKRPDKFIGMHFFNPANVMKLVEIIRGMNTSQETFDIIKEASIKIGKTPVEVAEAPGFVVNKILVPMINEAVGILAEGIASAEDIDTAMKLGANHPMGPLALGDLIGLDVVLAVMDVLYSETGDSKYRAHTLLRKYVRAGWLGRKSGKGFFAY

Row | Compound | NAD(P)H oxidation at 340 nm, E. coli cell-free extract [1] | NAD(P)H oxidation at 340 nm, E. coli cell-free extract [2]
1 | NC(=O)C1=CN([C@@H]2O[C@H](COP(=O)(O)OP(=O)(O)OC[C@H]3O[C@@H](n4cnc5c(N)ncnc54)[C@H](O)[C@@H]3O)[C@@H](O)[C@H]2O)C=CC1 [NADH] | we confirmed NADH specificity and acetoacetyl-CoA-dependence | –
2 | NC(=O)C1=CN([C@@H]2O[C@H](COP(=O)(O)OP(=O)(O)OC[C@H]3O[C@@H](n4cnc5c(N)ncnc54)[C@H](OP(=O)(O)O)[C@@H]3O)[C@@H](O)[C@H]2O)C=CC1 [NADPH] | – | C. kluyveri hbd1 E. coli extracts were used as an NADPH-specific control
3 | CC(=O)CC(=O)SCCNC(=O)CCNC(=O)[C@H](O)C(C)(C)COP(=O)(O)OP(=O)(O)OC[C@H]1O[C@@H](n2cnc3c(N)ncnc32)[C@H](O)[C@@H]1OP(=O)(O)O [acetoacetyl-CoA] | we confirmed NADH specificity and acetoacetyl-CoA-dependence | Both hbd1 and hbd2 E. coli cell free extracts showed low activity without acetoacetyl-CoA
